The text below walks through data of BindingDB's records for doi:10.3109/14756366.2012.709242 (Anadolu University, 2013).

The target of assay [1] is Carboxylic ester hydrolase (Equus caballus, UniProt Q9N1N9). The assay can be described thus: Enzymatic Assay. Here is the method:
(§1) AChE or BChE solution (50 μL) and compound solution (50 μL), which is prepared in 2% DMSO at a concentration range of 10^−1-10^−6 mM, were added to 3.0 mL phosphate buffer (pH8 ± 0.1) and incubated at 25°C for 5 min. The reaction was started by adding (DTNB) (50 μL) and ATC (10 μL) to the enzyme-inhibitor mixture. […] As a control, an identical solution of the enzyme without the inhibitor was processed following the same protocol. The blank reading contained 3.0 mL buffer, 50 μL 2% DMSO, 50 μL DTNB and 10 μL substrate. All processes were assayed in triplicate.

The target of another assay is Acetylcholinesterase (Electrophorus electricus, UniProt O42275). The experiment in a line: Enzymatic Assay. As to conditions: pH 8; 25 °C. Here is the method: as §1
Acetylcholinesterase, sequence (O42275 whole entry): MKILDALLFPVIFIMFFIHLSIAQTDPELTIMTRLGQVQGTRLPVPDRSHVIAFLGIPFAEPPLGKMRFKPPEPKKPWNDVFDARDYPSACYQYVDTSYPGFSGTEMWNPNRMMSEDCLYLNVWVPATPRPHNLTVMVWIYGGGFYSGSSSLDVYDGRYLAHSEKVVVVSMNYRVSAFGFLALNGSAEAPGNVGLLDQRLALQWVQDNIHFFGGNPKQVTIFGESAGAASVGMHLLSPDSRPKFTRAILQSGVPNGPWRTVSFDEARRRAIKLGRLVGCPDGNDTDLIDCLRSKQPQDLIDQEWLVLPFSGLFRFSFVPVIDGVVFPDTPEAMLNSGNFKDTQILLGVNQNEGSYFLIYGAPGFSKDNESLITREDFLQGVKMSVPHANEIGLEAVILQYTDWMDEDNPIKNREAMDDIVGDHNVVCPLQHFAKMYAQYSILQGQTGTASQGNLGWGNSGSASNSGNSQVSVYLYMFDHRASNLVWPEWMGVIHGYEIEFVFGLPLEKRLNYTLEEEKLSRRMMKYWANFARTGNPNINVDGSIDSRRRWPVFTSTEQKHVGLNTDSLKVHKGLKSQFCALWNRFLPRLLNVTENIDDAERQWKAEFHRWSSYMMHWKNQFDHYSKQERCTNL

Carboxylic ester hydrolase, sequence (Q9N1N9 whole entry): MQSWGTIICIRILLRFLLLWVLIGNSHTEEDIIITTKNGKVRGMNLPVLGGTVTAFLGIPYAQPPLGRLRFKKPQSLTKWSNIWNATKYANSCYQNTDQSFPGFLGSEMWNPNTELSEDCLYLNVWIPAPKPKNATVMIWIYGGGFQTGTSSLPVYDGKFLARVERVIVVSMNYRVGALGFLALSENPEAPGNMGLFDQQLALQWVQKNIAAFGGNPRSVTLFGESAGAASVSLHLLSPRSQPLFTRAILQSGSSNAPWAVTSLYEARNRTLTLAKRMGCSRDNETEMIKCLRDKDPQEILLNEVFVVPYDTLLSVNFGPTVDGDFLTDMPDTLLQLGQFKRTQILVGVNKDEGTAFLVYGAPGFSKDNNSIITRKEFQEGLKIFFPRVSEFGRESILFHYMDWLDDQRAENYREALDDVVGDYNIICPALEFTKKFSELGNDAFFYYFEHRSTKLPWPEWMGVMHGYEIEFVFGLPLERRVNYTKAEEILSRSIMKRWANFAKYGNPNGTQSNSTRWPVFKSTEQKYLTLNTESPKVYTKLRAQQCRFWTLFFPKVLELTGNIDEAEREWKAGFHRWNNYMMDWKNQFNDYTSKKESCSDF

As a reminder, the IC50 is the concentration at which inhibition is half-maximal. Read a high IC50 as weaker potency. Regarding `Cc1nc(-c2ccc(NC(=O)CN3CCN(C4CCCCC4)CC3)cc2)cs1` [2-(4-Cyclohexylpiperazine-1-yl)-N-[4-(2-methylthiazol-4-yl)pheny])acetamide (5c)], the half-inhibitory concentration (IC50) in assay [1] was over 100 µM; against Acetylcholinesterase, 6.34 µM.
For the molecule `CCN1CCN(CC(=O)Nc2ccc(-c3csc(C)n3)cc2)CC1` [2-(4-Ethylpiperazine-1-yl)-N-[4-(2-methylthiazol-4-yl)pheny])acetamide (5b)], the IC50 in assay [1] was over 100 µM; against Acetylcholinesterase, 11.7 µM.
As for `Cc1nc(-c2ccc(NC(=O)CN3CCN(C)CC3)cc2)cs1` [2-(4-Methylpiperazine-1-yl)-N-[4-(2-methylthiazol-4-yl)phenyl]acetamide (5a)], the IC50 in assay [1] was over 100 µM; against Acetylcholinesterase, 7.12 µM.
Turning to `Cc1nc(-c2ccc(NC(=O)CN3CCN(c4ccccc4)CC3)cc2)cs1` [2-(4-Phenylpiperazine-1-yl)-N-[4-(2-methylthiazol-4-yl)phenyl]acetamide (5d)], the IC50 (in assay [1]; against Acetylcholinesterase) was over 100 µM each time.
In the case of `Cc1nc(-c2ccc(NC(=O)CN3CCN(Cc4ccccc4)CC3)cc2)cs1` [2-[4-(2-Benzyl)piperazine-1-yl]-N-[4-(2-methylthiazol-4-yl)phenyl]acetamide (5o)], the IC50 was over 100 µM in assay [1] and 0.011 µM at Acetylcholinesterase.
Consider `Cc1nc(-c2ccc(NC(=O)CN3CCN(C(=O)c4ccco4)CC3)cc2)cs1` [2-[4-(2-Furoyl)piperazine-1-yl]-N-[4-(2-methylthiazol-4-yl)phenyl]acetamide (5p)], for which the IC50 was over 100 µM in assay [1] and 0.27 µM against Acetylcholinesterase.
For the molecule `COc1ccccc1N1CCN(CC(=O)Nc2ccc(-c3csc(C)n3)cc2)CC1` [2-[4-(2-Methoxyphenyl)piperazine-1-yl]-N-[4-(2-methylthiazol-4-yl)phenyl]acetamide (5m)], the 50% inhibitory concentration (IC50) in assay [1] is over 100 µM; at Acetylcholinesterase it was 8.42 µM.
The like results for `Cc1nc(-c2ccc(NC(=O)CN3CCN(c4ccccc4C)CC3)cc2)cs1` [2-[4-(2-Methylphenyl)piperazine-1-yl]-N-[4-(2-methylthiazol-4-yl)pheny]acetamide (5l)] were, in that order, over 100 µM and over 100 µM.
Regarding `Cc1nc(-c2ccc(NC(=O)CN3CCN(c4ccccn4)CC3)cc2)cs1` [2-[4-(2-Pyridyl)piperazine-1-yl]-N-[4-(2-methylthiazol-4-yl)phenyl]acetamide (5n)], the half-inhibitory concentration (IC50) is over 100 µM in assay [1] and 0.051 µM against Acetylcholinesterase.
On to `COc1cccc(N2CCN(CC(=O)Nc3ccc(-c4csc(C)n4)cc3)CC2)c1` [2-[4-(3-Methoxyphenyl)piperazine-1-yl]-N-[4-(2-methylthiazol-4-yl)phenyl]acetamide (5k)], for which the IC50 (in assay [1]; on Acetylcholinesterase) was over 100 µM each time.
In the case of `Cc1cccc(N2CCN(CC(=O)Nc3ccc(-c4csc(C)n4)cc3)CC2)c1` [2-[4-(3-Methylphenyl)piperazine-1-yl]-N-[4-(2-methylthiazol-4-yl)phenyl]acetamide (5j)], the IC50 in assay [1] was over 100 µM; against Acetylcholinesterase, 88.4 µM.
For the molecule `Cc1nc(-c2ccc(NC(=O)CN3CCN(c4ccc(Cl)cc4)CC3)cc2)cs1` [2-[4-(4-Chlorophenyl)piperazine-1-yl]-N-[4-(2-methylthiazol-4-yl)phenyl]acetamide (5g)], the IC50 (in assay [1]; against Acetylcholinesterase) was over 100 µM throughout.
As for `Cc1nc(-c2ccc(NC(=O)CN3CCN(c4ccc(F)cc4)CC3)cc2)cs1` [2-[4-(4-Florophenyl)piperazine-1-yl]-4-[4-(2-methylthiazol-4-yl)phenyl]acetamide (5h)], the IC50 (in assay [1]; against Acetylcholinesterase) was over 100 µM each time.
Turning to `COc1ccc(N2CCN(CC(=O)Nc3ccc(-c4csc(C)n4)cc3)CC2)cc1` [2-[4-(4-Methoxyphenyl)piperazine-1-yl]-N-[4-(2-methylthiazol-4-yl)phenyl]acetamide (5f)], the IC50 (in assay [1]; on Acetylcholinesterase) was over 100 µM in each case.
Turning to `Cc1ccc(N2CCN(CC(=O)Nc3ccc(-c4csc(C)n4)cc3)CC2)cc1` [2-[4-(4-Methylphenyl)piperazine-1-yl]-N-[4-(2-methylthiazol-4-yl)phenyl]acetamide (5e)], the IC50 (in assay [1]; against Acetylcholinesterase) was over 100 µM in each case.
In the case of `Cc1nc(-c2ccc(NC(=O)CN3CCN(c4ccc([N+](=O)[O-])cc4)CC3)cc2)cs1` [2-[4-(4-Nitrophenyl)piperazine-1-yl]-N-[4-(2-methylthiazol-4-yl)pheny]acetamide (5i)], the half-maximal inhibitory concentration (IC50) (in assay [1]; on Acetylcholinesterase) was over 100 µM each time.
